# Values quoted from earlier work, collected in patent publication US20050209190A1, “Camptothecin complexes” (priority 2000, published 2005).
# How the values were obtained:
# [1] = system: human colon cancer xenografts; conditions: mouse, in vivo
# [2] = administered intravenously; studies abandoned
# tumorigenic human cells = conditions: in vitro
# [3] = system: nontumorigenic human cells; conditions: in vitro
smiles,measurement,setting,value
"CC[C@@]1(O)C(=O)OCc2c1cc1n(c2=O)Cc2cc3cc4c(cc3nc2-1)OCO4 [10,11 MD, 10,11-Methylendioxy-20(S)-Camptothecin]",anticancer activity against human colon cancer xenografts,[1],high anticancer activity
CC[C@@](O)(C(=O)[O-])c1cc2n(c(=O)c1CO)Cc1cc3ccccc3nc1-2.[Na+] [CPT Na+],potency in clinical trials,[2],low potency
same,toxicity in clinical trials,[2],high toxicity
"CC[C@@]1(O)C(=O)OCc2c1cc1n(c2=O)Cc2cc3ccccc3nc2-1 [CPT, 20(S)-camptothecin]",effect on tumorigenic cells,tumorigenic human cells,cytotoxic
same,solubility in water,,insoluble in water
same,effect on nontumorigenic cells,[3],cytostatic
"CC[C@@]1(O)C(=O)OCc2c1cc1n(c2=O)Cc2cc3c(N)cccc3nc2-1 [Example 9AC, 9-Amino-20(S)-Camptothecin]",anticancer activity against human colon cancer xenografts,[1],high anticancer activity
"CC[C@@]1(O)C(=O)OCc2c1cc1n(c2=O)Cc2cc3c([N+](=O)[O-])cccc3nc2-1 [Example 9NC, 9-nitrocamptothecin]",growth of human tumor xenografts,human tumor xenografts; immunodeficient nude mice,inhibited the growth
same,activity against human tumor xenograft models,"human tumor xenografts; mouse, in vivo",high activity
same,regression of human tumors established as xenografts,human tumor xenografts; nude mice,induced regression
